Assay [1] relates to LNCaP WT cells. Put plainly: xCELLigence real-time proliferation of WT LNCaP cells. The following applies: for proliferation of WT LNCaPs: PDE4 activator, 1 and 10 μM. The assay is classed as cell-based. The procedure: (§1) xCELLigence Real-Time Cell Analysis (RTCA)
(§2) Real-time cell growth was analysed using the xCELLigence RTCA system (Agilent), which measures real-time cell adhesion across gold microelectrode biosensors on 96 well electronic plates (E-plates) within a 37 °C incubator with 5% CO2. Cellular adhesion influences electrical impedance which is converted into the cell index (CI) via RTCA software. Initial background measurements were recorded with 100 μL RPMI 1640 medium, followed by addition of 100 μL LNCaP cell suspension (10,000 cells/wells) for measurement of CI over time. Approximately 24 h after seeding, cells were treated with specified concentrations of drugs. Negative controls containing either 0.1% DMSO or untreated cells were also included. CI was transformed to normalised CI via the RTCA software to timepoint of treatment.

Assay [2] has as its system PDE4D7-knockdown LNCaP P1 cells. Put plainly: xCELLigence real-time proliferation of PDE4D7-knockdown P1 LNCaP cells. The following applies: for resistance to olaparib, PDE4D7-reduced cells: olaparib 10 and 30 μM. The class given is cell-based.
From the text: Stable shRNA-mediated lentiviral transduced LNCaP cell lines were generated by AMSBIO (Table 1). Briefly, shRNA-PDE4D7 was cloned into a lentivector and delivered into LNCaP clone FGC cells (ATCC) via lentivirus (MOI=10). Cells were maintained in puromycin-supplemented medium prior to selection of stably transduced cells. A stable shRNA-PDE4D7 LNCaP cell line was then re-transduced with lentivirus delivering PDE4D7 to generate a re-introduced cell line. Scrambled-shRNA was used as a control. All cells were cultured in RPMI 1640 medium (Gibco D), supplemented with 10% (v/v) foetal bovine serum, 1% (v/v) L-Glutamine and 1% (v/v) penicillin/streptomycin, and stored within a 37 °C incubator with 5% CO2.
as §1, §2

Assay [3] concerns P1-PDE4D7+/+ LNCaP cells. Put plainly: xCELLigence real-time proliferation of P1 LNCaP cells with PDE4D7 re-expression. The assay is classed as cell-based.
Assay [4] has as its system PARP cleavage in LNCaP WT. Put plainly: PARP/cleaved PARP western blot in WT LNCaP. The following applies: N=3. The assay is classed as cell-based. As for the experimental part: (§3) FIG. 12: Ratio of PARP and cleaved PARP (PARPc) by western blot analysis in LNCaP WT and LNCaP PDE4D7 knockdown cell line P1 upon incubation with 0.1% DMSO (control), 10 μM Olaparib, and 10 nM docetaxel including quantitation of western blot bands normalised to DMSO.
(§4) Cells were lysed in 3T3 lysis buffer (50 mM NaCl, 50 mM NaF, 30 mM sodium pyrophosphate, 25 mM HEPES, 2.5 mM EDTA, 10% (v/v) glycerol, 1% (v/v) Triton X-100; pH 7.5) supplemented with cOmplete™ EDTA-free protease inhibitor cocktail (Sigma-Aldrich). Lysed cells were rotated end-over-end for 30 minutes at 4 °C, then centrifuged for 10 minutes at 13,000 RPM at […]. Supernatants were collected and protein concentration determined via Bradford assay. Equal concentrations of protein samples were separated via SDS-polyacrylamide gel electrophoresis (SDS-PAGE) and transferred onto nitrocellulose membranes for western blot. Membranes were blocked in 5% (w/v) milk powder in TBS-T for 1 h prior to primary and secondary antibody incubations. […]
(In general: A western blot detects proteins with antibodies after separation by electrophoresis.)

In assay [5] the test system is PARP cleavage in LNCaP P1. Put plainly: PARP/cleaved PARP western blot in PDE4D7-knockdown P1 LNCaP. The class given is cell-based. The following applies: N=3. The procedure:
as §3, §4

The subject of assay [6] is LNCaP cells. The following applies: Feiersinger et al., 2018; cited from earlier work.

Structures are written as SMILES. Entries after “also recorded” stand apart in the source; their conditions may differ.

`CC(=O)O[C@@]12CO[C@@H]1C[C@H](O)[C@@]1(C)C(=O)[C@H](O)C3=C(C)[C@@H](OC(=O)[C@H](O)[C@@H](NC(=O)OC(C)(C)C)c4ccccc4)C[C@@](O)([C@@H](OC(=O)c4ccccc4)[C@H]21)C3(C)C` [docetaxel, Docetaxel]: the “growth of WT LNCaPs” value in assay [1] (docetaxel 10 μM) is “effective in WT”. Moreover, the “growth of WT LNCaPs vs DMSO” value in assay [1] (docetaxel, all concentrations (5-25 μM), slope 0-48 h) is listed as “significantly reduced growth”. The “growth of P1 cells” value in assay [2] (docetaxel 10 μM) is “no effect”. Further, the “growth of PDE4D7-knockdown LNCaPs vs DMSO” value in assay [2] (docetaxel, all concentrations (5-25 μM) except 10 μM, slope 0-48 h) is “significantly reduced growth”. Besides, in assay [3] (docetaxel 10 μM), the “sensitivity to docetaxel after PDE4D7 re-introduction, vs P1” value is reported as “more sensitive to docetaxel treatment than P1”. Further, the “PARP cleavage, WT LNCaP” value in assay [4] (docetaxel 10 nM) was “increased PARP cleavage”. For the same compound, in assay [5] (docetaxel 10 nM), the “cleaved PARP ratio, P1 LNCaP” value is reported as “No increase in cleaved PARP ratio”.
As for `CCc1nc(-c2ccc(Cl)c(F)c2)nn1CC(=O)NCc1cc(Cl)cc(Cl)c1` [ML-R2], the “proliferation of WT LNCaPs” value is “no effect on proliferation in WT LNCaPs at either concentration” in assay [1], “no effect on growth of WT LNCaPs” in assay [1] (listed as MLR2) and “no effect on proliferation in WT LNCaPs” in assay [1] (listed as MR-L2). The “growth of P1 cells” value in assay [2] (PDE4 activator, 1-10 μM) is “inhibition of cell growth in P1 cells”; in assay [2] (PDE4 activator, 1-10 μM, listed as MLR2), “attenuates growth of P1 LNCaPs”; in assay [2] (PDE4 activator, 1-10 μM, listed as MR-L2) it was “inhibition of growth in P1 cells”. Moreover, in assay [3] (PDE4 activator, 10 μM), the “MLR2 sensitivity after PDE4D7 reintroduction to P1” value is recorded as “rescues phenotype of WT LNCaPs on MLR2 sensitivity”.
As for `O=C(c1cc(Cc2n[nH]c(=O)c3ccccc23)ccc1F)N1CCN(C(=O)C2CC2)CC1` [olaparib, Olaparib], the “LNCaP WT proliferation” value in assay [1] (olaparib 0-30 μM) is reported as “decreased in a dose-dependent manner”. Moreover, the “growth rate (slope analysis), WT” value in assay [1] (olaparib 3, 10 and 30 μM, slope 0-30 h) is on record as “significant reductions in WT growth”. Besides, in assay [2] (olaparib 0-30 μM), the “effect on PDE4D7-deficient LNCaP proliferation” value was “minimal”. Moreover, the “growth rate (slope analysis), P1” value in assay [2] (olaparib 0.3 and 1 μM, slope 0-30 h) is given as “unexpected reduction in slope”. For the same compound, the “resistance to olaparib, PDE4D7-reduced cells” value in assay [2] is given as “resistant to olaparib; also recorded: resistance”; in assay [2] (listed as Olaparib), “resistance”. Besides, the “resistance to PARP inhibition via olaparib upon PDE4D7 knockdown” value in assay [2] (overall conclusion) is given as “resistant to PARP inhibition via olaparib; also recorded: confers resistance to PARP-inhibition via olaparib; also recorded: enhances resistance to olaparib”. Further, the “sensitivity to olaparib after PDE4D7 re-introduction” value in assay [3] (olaparib 10 μM) is “more sensitive to olaparib treatment; also recorded: re-sensitised”; in assay [3] (olaparib 10 μM, listed as Olaparib), “enhances sensitivity to Olaparib”. Also, the “growth vs olaparib-treated P1 and DMSO-treated P1-PDE4D7+/+ cells” value in assay [3] (olaparib 10 μM, slope 0-48 h) is given as “statistically significant downregulation in growth”. The “PARP cleavage, WT LNCaP” value in assay [4] (olaparib 10 μM) is listed as “increased PARP cleavage”. In assay [5] (olaparib 10 μM), the “cleaved PARP ratio, P1 LNCaP” value is “No increase in cleaved PARP ratio”. For the same compound, in assay [6], the “effect against LNCaP cells” value is reported as “effective against LNCaP cells”.
With `CC#C[C@]1(O)CC[C@H]2[C@@H]3CCC4=CC(=O)CCC4=C3[C@@H](c3ccc(N(C)C)cc3)C[C@@]21C` [mifepristone], in assay [1] (mifepristone 30 μM), the “growth of WT LNCaPs” value is “successfully inhibited growth”. In addition, the “WT cell proliferation vs DMSO” value in assay [1] (mifepristone 0.3-10 μM) is on record as “neither WT or P1 cell proliferation were reduced compared to DMSO”. In addition, the “proliferation of P1 LNCaPs” value in assay [2] (mifepristone 30 μM) is listed as “significantly enhanced proliferation”. For the same compound, in assay [2] (mifepristone 30 μM, compared to lower concentrations), the “growth curve over time, P1 LNCaPs” value was “initial growth was inhibited compared to lower concentrations, however this effect eventually wore off”. For the same compound, in assay [2] (mifepristone 0.3-10 μM), the “P1 cell proliferation vs DMSO” value is on record as “neither WT or P1 cell proliferation were reduced compared to DMSO”.
